# Data reported in paper PMC11371747, “The role of l-leucovorin uptake and metabolism in the modulation of 5-fluorouracil efficacy and antifolate toxicity” (Frontiers in Pharmacology, 2024).
# Where two headings read alike, the source gives them in different places.
# Experiments:
# folate receptor α (FRα) = molecular target: T1, folate receptor α (FRα) (Homo sapiens, UniProt P15328); experiment: Intact cell competitive binding assay, displacement of [3H]-folic acid from FRα in KB cells
# T1 construct: endogenous in cells; host or cells: KB cells (FRα++)
# T1 sequence (P15328 25-257): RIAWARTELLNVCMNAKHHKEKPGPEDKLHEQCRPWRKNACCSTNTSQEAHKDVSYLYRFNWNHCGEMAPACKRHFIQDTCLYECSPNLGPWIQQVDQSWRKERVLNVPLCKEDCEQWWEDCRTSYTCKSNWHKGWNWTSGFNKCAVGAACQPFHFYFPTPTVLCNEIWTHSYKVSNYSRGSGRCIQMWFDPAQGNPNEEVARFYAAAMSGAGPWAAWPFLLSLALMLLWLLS
# Description: In order to determine whether the LV isomers were substrates for either folate receptor α (FRα), RFC and/or PCFT, we used model systems with established overexpression of these receptors or transporters ([Westerhof et al., 1995a]; [Westerhof et al., 1995b]; [Lasry et al., 2008]; [Van der Heijden et al., 2009]).
# For FRα we used KB cells ([Westerhof et al., 1995b]). An intact cell binding assay for competitive binding was performed as described previously ([Westerhof et al., 1995a]). Briefly, cells were washed with Hanks balanced salt solution and 6 mM glucose (HBSS, pH 7.4), suspended in 1 mL of this solution (1*10^6 for KB cells) and incubated at 4°C for 15 min with 100 pmol [^3H]-folic acid [(^3H)-FA], in the presence and absence of unlabelled folic acid or LV stereoisomers. Cells were collected by centrifugation and analysed for radioactivity. Relative affinities for FRα were defined as the inverse ratio of compound to displace 50% of radioactive folic acid from FRα. The relative affinity of folic acid was set at 1.
# H28 cells = experiment: Growth inhibition, SRB assay, H28 (MPM); assay type: cell-based, human; settings: for IC50: H28, SRB, read-out: IC50, 72 h drug exposure
# Description: (§1) Briefly, cells were seeded in triplicate in 96-well plates at their pre-established optimal density (CHO cells: 2,500 cells/100 μL; WiDr and HT29: 3,500 cells/100 μL; WiDr-LF/LV, LS174T: 5,000 cells/100 μL; CaCo2, CaCo2-LF/LV, H292, H28 and MSTO-211H: 6,000 cells/100 μL; H460, SW948 and SW1398: 7,000 cells/100 μL) and were allowed to attach for ∼ 24 h at 37°C in 5% CO2 and 100% humidified incubator. Thereafter, 100 μL of drug dilution without LV, or with 5 μM l-LV/5 μM d-LV/10 μM dL-LV (or any LV alone) were added. Cells were allowed to grow for 72 h at 37°C in 5% CO2 and 100% humidity. The t = 0 h control plate consisted of cells plated on the same day as the other cells, but after 24 h at 37°C in 5% CO2 and 100% humidity, only 100 μL medium was added and the cells were fixed immediately with 50% trichloroacetic acid (TCA) in milliQ water (25 μL per well) and put at 4°C for at least 1 h. Plates were washed five times with water and dried. Cells were stained with the SRB protein dye (0.4% (w/v) in 1% acetic acid. Excess dye was washed away four times with 1% acetic acid and plates were dried again. 200 μL of Tris (10 mM Tris (hydroxymethyl)-aminomethane in MQ) was added and optical density (OD) was read at 492 nm after mixing 2–3 min on a plate shaker.
# MSTO-211H cells = experiment: Growth inhibition, SRB assay, MSTO-211H (MPM); assay type: cell-based, human; settings: for IC50: SRB, read-out: IC50, 72 h drug exposure
# Description: as §1
# CHO/C5 cells = experiment: Growth inhibition, SRB assay, CHO/C5 (RFC-deficient); assay type: cell-based, Chinese hamster
# Description: as §1
# CHO/C5-PCFT cells = experiment: Growth inhibition, SRB assay, CHO/C5-PCFT (PCFT-transfected); assay type: cell-based, Chinese hamster
# Description: as §1
# CHO/C5-hRFC cells = experiment: Growth inhibition, SRB assay, CHO/C5-hRFC (human RFC transfected); assay type: cell-based, Chinese hamster; settings: CHO/C5-hRFC
# Description: as §1
# [1] = Cricetulus griseus, antifolate alone
compound,measurement,setting,value
"C#CCC(Cc1cnc2nc(N)nc(N)c2n1)c1ccc(C(=O)N[C@@H](CCC(=O)O)C(=O)O)cc1 (some centres unmarked) [PLX, pralatrexate]",Molar excess over folic acid required for displacement of [3H]-FA binding from FRα,folate receptor α (FRα),> 100 fold
same,Relative affinity for FRα,"folate receptor α (FRα); 100 pmol [3H]-FA, inverse ratio of amount of drug displacing 50% of [3H]-FA, FA set to 1",0.0035
same,IC50,H28 cells; antifolate + 5 µM l-LV,14.6 µM
same,Relative protection by 5 µM l-LV,"H28 cells; H28, ratio IC50 antifolate + LV / IC50 antifolate",1834 ± 108
same,IC50,"H28 cells; Homo sapiens, NCI-H28, 72 h, antifolate alone",0.011 ± 0.0006 µM
same,IC50,"MSTO-211H cells; Homo sapiens, 72 h, antifolate alone",0.0024 ± 0.0001 µM
same,IC50,MSTO-211H cells; antifolate + 5 µM l-LV,3.34 µM
same,Relative protection by 5 µM l-LV,MSTO-211H cells; ratio IC50 antifolate + LV / IC50 antifolate,"1,601 ± 275"
same,IC50,CHO/C5 cells; [1],9.5 µM
same,IC50,CHO/C5 cells; antifolate + 5 µM l-LV,48.3 µM
same,IC50,CHO/C5-PCFT cells; [1],6.8 µM
same,IC50,CHO/C5-PCFT cells; antifolate + 5 µM l-LV,87.5 µM
same,IC50,CHO/C5-hRFC cells; antifolate + 5 µM l-LV,0.9 µM
same,IC50,CHO/C5-hRFC cells; [1],0.0038 µM
